Patent publication US20250195475A1, “CDK2 INHIBITOR AND PREPARATION METHOD AND USE THEREOF” (INVENTISBIO CO., LTD., priority 2022, published 2025)
pIC50: −log10 of the molar value.

What was measured:
[1] = target: CDK2/CyclinE1 (Homo sapiens (Human), UniProt P24941); test: CDK2 kinase assay (TR-FRET); assay type: biochemical; conditions: CDK2/CyclinE1 0.5 nM, ATP 50 μM
Summary of the method: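 Compounds were preincubated 10 min at room temperature with enzyme in 50 mM HEPES pH 7.5, 10 mM MgCl2, 1 mM EGTA, 2 mM DTT, 0.01% Tween-20, BSA. Substrate reaction ran 30 min at 25 °C, was stopped with EDTA and read by LANCE TR-FRET (ex 320/em 665 nm) after 1 h. IC50 came from a four-parameter fit of % inhibition.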

[2] = target: CDK1/CyclinB1 (Homo sapiens (Human), UniProt P06493); test: CDK1 kinase assay (TR-FRET); assay type: biochemical; conditions: CDK1/CyclinB 7.5 nM, ATP 17 μM
Chain of CDK1/CyclinB1 (P06493 whole entry): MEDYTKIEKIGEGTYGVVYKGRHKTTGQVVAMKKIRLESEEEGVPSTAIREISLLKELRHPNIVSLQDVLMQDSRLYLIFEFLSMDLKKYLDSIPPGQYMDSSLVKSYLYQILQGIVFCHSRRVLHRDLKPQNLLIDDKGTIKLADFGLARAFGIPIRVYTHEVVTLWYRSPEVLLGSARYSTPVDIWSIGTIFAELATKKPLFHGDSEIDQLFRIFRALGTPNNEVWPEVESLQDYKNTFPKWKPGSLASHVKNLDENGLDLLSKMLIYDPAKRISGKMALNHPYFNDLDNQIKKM
Chain of CDK1/CyclinB1 (P14635 whole entry partner): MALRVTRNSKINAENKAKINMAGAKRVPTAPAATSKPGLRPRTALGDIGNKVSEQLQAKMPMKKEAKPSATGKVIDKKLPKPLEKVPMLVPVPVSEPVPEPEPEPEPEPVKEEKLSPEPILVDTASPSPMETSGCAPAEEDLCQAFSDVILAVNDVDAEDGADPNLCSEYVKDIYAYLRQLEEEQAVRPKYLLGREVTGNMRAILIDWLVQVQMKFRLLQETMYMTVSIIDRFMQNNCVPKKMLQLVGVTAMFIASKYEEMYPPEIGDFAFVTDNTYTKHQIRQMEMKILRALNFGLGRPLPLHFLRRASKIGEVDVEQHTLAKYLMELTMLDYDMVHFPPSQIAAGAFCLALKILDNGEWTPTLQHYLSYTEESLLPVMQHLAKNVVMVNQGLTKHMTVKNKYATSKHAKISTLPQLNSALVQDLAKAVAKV
Protocol: (§1) The purpose of these assays is to evaluate the inhibition of small molecule inhibitors by using TR-FRET assay.
(§2) Compound Preparation. Dissslove the compounds into DMSO solution to make 10 mM DMSO stock. Serially dilute the stock solution from highest concentration down to lowest in DMSO to make the compound stock plate (100× stock plates). To make 5× compound intermediate plate, add 38 μL of assay buffer (50 mM HEPES, pH 7.5, 0.05 mg/mL BSA, 10 mM MgCl2, 1 mM EGTA, 0.01% Tween-20, 2 mM DTT) into each well of the V-bottom plate; then transfer 2 μL of the stock compound solution of each concentration from the compound stock plate (100× stock), and mix well.
(§3) Enzyme reaction. Transfer 2 μL compound from 5× intermediate plate into assay plate, then add 4 μL/well 2.5× Enzyme mix to assay plate, incubation for 10 min at room temperature. For positive control wells, add 4 μL/well assay buffer instead of Enzyme mix. Then add 4 μL/well 2.5× Substrate mix to assay plate, and incubation at 25° C. for 30 min at room temperature. After reaction, 10 μL 2× Detection mix (final 15 mM EDTA, 1× LANCE Detection Buffer, 0.5 nM Detection antibody) was added and incubated for 1 h prior to detection with excitation and emission at 320 and 665 nm (Tecan Spark® TR-FRET mode Tecan).
(§4) Inhibition rate (IR) of the tested compounds was determined by the following formula: IR (%)=(average High control−compound well)/(average High control−average Low control)*100%. Fit the compound IC50 from non-linear regression equation: Y=Bottom+(Top−Bottom)/(1+10^((Log IC50−X)*HillSlope)). X: Log of cpd concentration; Y: Inhibition rate (TR); Top and Bottom: Plateaus in same units as Y, log IC50: same log units as X; HillSlope: Slope factor or Hill slope.

[3] = target: CDK9/CyclinT1 (Homo sapiens (Human), UniProt P50750); test: CDK9 kinase assay (TR-FRET); assay type: biochemical; conditions: CDK9/CyclinT1 1.0 nM, ATP 3.5 μM
Chain of CDK9/CyclinT1 (P50750 whole entry): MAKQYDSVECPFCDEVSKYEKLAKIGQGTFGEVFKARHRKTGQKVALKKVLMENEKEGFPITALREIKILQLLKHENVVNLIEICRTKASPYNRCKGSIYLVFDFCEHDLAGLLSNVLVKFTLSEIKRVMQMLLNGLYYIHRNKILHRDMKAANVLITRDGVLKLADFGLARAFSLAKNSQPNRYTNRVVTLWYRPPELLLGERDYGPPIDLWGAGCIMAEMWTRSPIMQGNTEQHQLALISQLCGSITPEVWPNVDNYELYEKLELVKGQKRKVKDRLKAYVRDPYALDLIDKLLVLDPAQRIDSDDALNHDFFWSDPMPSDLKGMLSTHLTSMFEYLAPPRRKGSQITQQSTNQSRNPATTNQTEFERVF
Chain of CDK9/CyclinT1 (O60563 whole entry partner): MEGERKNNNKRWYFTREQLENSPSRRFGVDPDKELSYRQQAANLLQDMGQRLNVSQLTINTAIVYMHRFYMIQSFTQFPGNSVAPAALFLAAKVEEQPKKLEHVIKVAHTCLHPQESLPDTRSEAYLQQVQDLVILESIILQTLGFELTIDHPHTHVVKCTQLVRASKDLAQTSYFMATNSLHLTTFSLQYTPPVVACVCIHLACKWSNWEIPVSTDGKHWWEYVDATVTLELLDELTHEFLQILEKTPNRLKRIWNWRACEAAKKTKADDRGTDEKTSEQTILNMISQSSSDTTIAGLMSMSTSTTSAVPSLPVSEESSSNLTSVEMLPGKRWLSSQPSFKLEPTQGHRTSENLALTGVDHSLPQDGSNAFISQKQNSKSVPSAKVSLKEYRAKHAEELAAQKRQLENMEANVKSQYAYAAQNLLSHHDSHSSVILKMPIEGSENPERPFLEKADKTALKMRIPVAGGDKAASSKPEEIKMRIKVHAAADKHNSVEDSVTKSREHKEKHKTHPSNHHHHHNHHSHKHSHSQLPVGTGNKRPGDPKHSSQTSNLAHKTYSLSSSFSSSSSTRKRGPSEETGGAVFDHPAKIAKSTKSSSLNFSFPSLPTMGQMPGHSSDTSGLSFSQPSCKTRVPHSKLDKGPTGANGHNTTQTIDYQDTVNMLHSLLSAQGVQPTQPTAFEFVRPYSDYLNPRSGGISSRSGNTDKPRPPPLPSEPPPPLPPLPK
Protocol: as §1, §2, §3, §4

[4] = target: CDK4/CyclinD1 (Homo sapiens (Human), UniProt P11802); test: CDK4 kinase assay (TR-FRET); assay type: biochemical; conditions: CDK4/CyclinD1 0.50 nM, ATP 225 μM
Chain of CDK4/CyclinD1 (P11802 whole entry): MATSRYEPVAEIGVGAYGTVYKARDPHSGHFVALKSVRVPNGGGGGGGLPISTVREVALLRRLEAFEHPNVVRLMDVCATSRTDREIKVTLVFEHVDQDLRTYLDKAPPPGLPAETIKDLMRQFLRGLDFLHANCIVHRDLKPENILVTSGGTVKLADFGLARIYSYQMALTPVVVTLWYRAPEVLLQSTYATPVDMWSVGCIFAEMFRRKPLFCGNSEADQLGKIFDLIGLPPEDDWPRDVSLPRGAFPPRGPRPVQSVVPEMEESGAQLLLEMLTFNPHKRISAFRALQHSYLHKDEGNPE
Chain of CDK4/CyclinD1 (P24385 whole entry partner): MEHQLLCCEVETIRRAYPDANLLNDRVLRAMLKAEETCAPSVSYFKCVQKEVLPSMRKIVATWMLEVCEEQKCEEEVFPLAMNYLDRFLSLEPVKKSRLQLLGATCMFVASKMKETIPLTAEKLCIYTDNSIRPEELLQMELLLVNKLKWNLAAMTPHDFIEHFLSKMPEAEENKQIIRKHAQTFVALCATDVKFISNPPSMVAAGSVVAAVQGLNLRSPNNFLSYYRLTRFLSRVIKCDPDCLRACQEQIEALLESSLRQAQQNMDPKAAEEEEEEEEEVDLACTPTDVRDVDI
Protocol: as §1, §2, §3, §4

[5] = target: CDK6/CyclinD3 (Homo sapiens (Human), UniProt Q00534); test: CDK6 kinase assay (TR-FRET); assay type: biochemical; conditions: CDK6/CyclinD3 0.50 nM, ATP 140 μM
Chain of CDK6/CyclinD3 (Q00534 whole entry): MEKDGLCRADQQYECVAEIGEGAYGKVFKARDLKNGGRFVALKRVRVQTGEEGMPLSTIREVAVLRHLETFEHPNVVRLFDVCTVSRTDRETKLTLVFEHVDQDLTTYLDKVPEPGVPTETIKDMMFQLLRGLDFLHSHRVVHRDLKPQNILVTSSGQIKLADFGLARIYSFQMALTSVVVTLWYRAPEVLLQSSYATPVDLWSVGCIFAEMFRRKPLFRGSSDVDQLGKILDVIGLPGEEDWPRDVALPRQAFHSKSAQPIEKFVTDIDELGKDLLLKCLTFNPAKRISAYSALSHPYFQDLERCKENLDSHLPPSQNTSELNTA
Chain of CDK6/CyclinD3 (P30281 whole entry partner): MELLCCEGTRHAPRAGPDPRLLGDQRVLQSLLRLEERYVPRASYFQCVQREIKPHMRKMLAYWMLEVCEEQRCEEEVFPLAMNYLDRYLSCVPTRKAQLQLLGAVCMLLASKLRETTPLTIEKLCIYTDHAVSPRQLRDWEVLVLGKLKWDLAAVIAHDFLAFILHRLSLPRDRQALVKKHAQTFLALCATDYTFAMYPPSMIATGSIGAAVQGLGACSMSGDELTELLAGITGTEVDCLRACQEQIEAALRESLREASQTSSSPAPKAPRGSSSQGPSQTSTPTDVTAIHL
Protocol: as §1, §2, §3, §4

[6] = target: GSK3β (Homo sapiens (Human), UniProt P49841); test: GSK3β kinase assay (TR-FRET); assay type: biochemical; conditions: GSK3β 1.0 nM, ATP 8.0 μM
Chain of GSK3β (P49841 whole entry): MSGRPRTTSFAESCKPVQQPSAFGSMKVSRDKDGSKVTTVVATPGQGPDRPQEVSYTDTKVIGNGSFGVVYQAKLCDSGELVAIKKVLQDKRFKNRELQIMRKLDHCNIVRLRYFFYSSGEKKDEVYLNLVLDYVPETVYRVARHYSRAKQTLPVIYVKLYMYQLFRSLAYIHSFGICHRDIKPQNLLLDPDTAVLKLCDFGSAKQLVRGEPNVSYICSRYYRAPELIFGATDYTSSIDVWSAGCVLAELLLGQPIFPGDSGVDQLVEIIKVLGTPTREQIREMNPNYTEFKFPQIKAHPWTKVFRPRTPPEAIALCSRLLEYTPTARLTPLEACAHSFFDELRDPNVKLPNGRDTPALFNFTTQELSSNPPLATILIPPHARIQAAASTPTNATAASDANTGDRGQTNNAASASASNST
Protocol: as §1, §2, §3, §4

[7] = system: OVCAR3 cancer cells; test: OVCAR3 proliferation assay (CellTiter-Glo); assay type: cell-based; conditions: Homo sapiens, OVCAR-3, 144 h, 6 days incubation, read-out: OVCAR3 CTG IC50
Protocol: The OVCAR3 cancer cells were cultured at temperature 37° C., 5% CO2 incubator. The cells were routinely subcultured. The cells growing in an exponential growth phase were harvested and counted for plating. Plate 100 μL of cell suspension into the assay plates. Incubate the assay plates at 37° C., 5% CO2, 95% air and 100% relative humidity overnight. The compounds to be tested were dissolved in dimethyl sulfoxide and prepared with a stock concentration of 10 mM. Serially dilute the stock solution from highest concentration down to lowest in DMSO to make the compound stock plate (200× stock plates). Add 0.5 μL of the 200× compound of each well into the cells in assay plates. The final DMSO concentration was 0.5%. Return the assay plate into incubator and incubate for 6 days. The procedures were performed according to the Promega CellTiter-Glo Luminescent Cell Viability Assay Kit to detect cell viability.
as §4, with “(IR);” for “(TR);”, “Y;” for “Y,”

Row | Structure (SMILES) | pIC50 [1] | pIC50 [2] | other results
1 | Cn1nccc1C(=O)Nc1cc([C@H]2CC[C@@H](OC(=O)NC3COC4(CCC4)C3)C2)[nH]n1 (single isomer, unassigned) [Compound 44] | 8.49 | 6.59 | –
2 | CC(C)NC(=O)O[C@@H]1CC[C@H](c2cc(NC(=O)C3CC(C)N(S(C)(=O)=O)C3)n[nH]2)C1 (single isomer, unassigned) [Compound 143] | 8.92 | 7.22 | pIC50 [3]: 6.00
3 | CC(C)NC(=O)OC1COC(c2cc(NC(=O)Cc3cc(F)cc(F)c3)n[nH]2)C1 (stereo not drawn) [Compound 24] | 8.74 | 6.99 | –
4 | CC[C@H](C)NC(=O)O[C@@H]1CC[C@H](c2cc(NC(=O)[C@H]3C[C@@H]3COC)n[nH]2)C1 [Compound 33] | 8.72 | 6.93 | pIC50 [4]: 6.19; pIC50 [5]: 6.24
5 | CCS(=O)(=O)N1CC[C@@H](C(=O)Nc2cc([C@H]3CC[C@@H](OC(=O)NC(C)C)C3)[nH]n2)C1 [Compound 49] | 8.66 | 6.88 | pIC50 [6]: 6.40
6 | CC1(NC(=O)OC2COC(c3cc(NC(=O)Cc4cc(F)cc(F)c4)n[nH]3)C2)CCOC1 (stereo not drawn) [Compound 53] | 8.68 | 6.87 | –
7 | CC(C)(C)NC(=O)O[C@@H]1CC[C@H](c2cc(NC(=O)[C@@H]3CCN(S(C)(=O)=O)C3)n[nH]2)C1 [Compound 84] | 8.80 | – | pIC50 [7]: 7.13
8 | CC(C)NC(=O)O[C@@H]1CC[C@H](C2=CC(NC(=O)[C@H]3C[C@@H]3[C@H](C)O)=NC2)C1 [Compound 136] | 8.92 | 7.19 | –
9 | CCC1(NC(=O)O[C@H]2CO[C@@H](c3cc(NC(=O)c4ccnn4C)n[nH]3)C2)CCC1 [Compound 183] | 9.30 | – | –
10 | COC[C@H]1C[C@@H]1C(=O)Nc1cc([C@@H]2CC[C@H](OC(=O)NC3(C)CC3)C2)[nH]n1 [Compound 184] | 9.30 | – | –
11 | C#CC1(NC(=O)O[C@H]2CO[C@@H](c3cc(NC(=O)c4ccnn4C)n[nH]3)C2)CCC1 [Compound 189] | 9.00 | 7.23 | –
12 | CCC(C)(C)NC(=O)O[C@H]1CO[C@@H](c2cc(NC(=O)c3ccnn3C)n[nH]2)C1 [Compound 190] | 9.22 | – | –
13 | CCC(C)(C)NC(=O)O[C@@H]1CO[C@H](c2cc(NC(=O)c3ccnn3C)n[nH]2)C1 [Compound 191] | 8.92 | 7.00 | pIC50 [3]: 6.88
14 | C#C[C@H]1C[C@@H]1C(=O)Nc1cc([C@@H]2C[C@H](OC(=O)NC3(C)COC3)CO2)[nH]n1 [Compound 197] | 7.80 | – | –
15 | CCC1(NC(=O)O[C@H]2CO[C@@H](c3cc(NC(=O)c4ccnn4C)n[nH]3)C2)CC1 [Compound 203] | 9.05 | – | –
16 | CCC1(NC(=O)O[C@@H]2CO[C@H](c3cc(NC(=O)c4ccnn4C)n[nH]3)C2)CC1 [Compound 204] | 9.00 | – | –
17 | Cc1c(C2CC2C(=O)Nc2cc([C@H]3CC[C@@H](OC(=O)NC4(C)CCC4)C3)[nH]n2)cnn1C (stereo partly drawn) [Compound 217] | 7.53 | – | –
18 | C#C[C@H]1C[C@@H]1C(=O)Nc1cc([C@@H]2CC[C@H](OC(=O)NC3(C)COC3)C2)[nH]n1 [Compound 222] | 8.96 | – | –
19 | C#C[C@H]1C[C@@H]1C(=O)Nc1cc([C@@H]2CC[C@H](OC(=O)NC3(C)CC3)C2)[nH]n1 [Compound 223] | 9.30 | – | –

The remaining compounds from weak to strong by pIC50 [1], led by results:

Row | pIC50 [1] | pIC50 [2] | Structure (SMILES) | other results
20 | 8.17 | – | C#CC1(NC(=O)O[C@@H]2CO[C@H](c3cc(NC(=O)c4ccnn4C)n[nH]3)C2)CCC1 [Compound 198] | –
21 | 8.34 | – | COCc1cc(C(=O)Nc2cc([C@H]3CC[C@@H](OC(=O)N[C@H]4C[C@@]5(CCOC5)C4)C3)[nH]n2)n(C)n1 [Compound 201] | –
22 | 8.41 | – | COCc1cc(C(=O)Nc2cc([C@H]3CC[C@@H](OC(=O)N[C@H]4C[C@]5(CCOC5)C4)C3)[nH]n2)n(C)n1 [Compound 202] | –
23 | 8.60 | 6.88 | Cn1nccc1C(=O)Nc1cc([C@@H]2C[C@H](OC(=O)NC(C)(C)C)CO2)[nH]n1 [Compound 102] | –
24 | 8.60 | 6.85 | CC(C)NC(=O)O[C@@H]1CC[C@H](c2cc(NC(=O)C34CC(C(=O)NO)(C3)C4)n[nH]2)C1 [Compound 126] | –
25 | 8.72 | 7.05 | Cn1nccc1C(=O)Nc1cc([C@H]2C[C@@H](OC(=O)NC3CCC3)CO2)[nH]n1 [Compound 122] | –
26 | 8.74 | – | Cn1nccc1C(=O)Nc1cc([C@@H]2C[C@H](OC(=O)NC3(CF)CCC3)CO2)[nH]n1 [Compound 216] | –
27 | 8.80 | 6.95 | CC1(NC(=O)OC2COC(c3cc(NC(=O)Cc4cc(F)cc(F)c4)n[nH]3)C2)CCOC1 (stereo not drawn) [Compound 52] | pIC50 [4]: 6.00; pIC50 [6]: 6.00; pIC50 [5]: 6.00
28 | 8.82 | 7.13 | CC[C@H](C)NC(=O)O[C@@H]1CO[C@H](c2cc(NC(=O)c3ccnn3C)n[nH]2)C1 [Compound 100] | pIC50 [6]: 6.15
29 | 8.85 | – | Cn1nccc1C(=O)Nc1cc([C@H]2C[C@@H](OC(=O)NC3(CF)CCC3)CO2)[nH]n1 [Compound 211] | –
30 | 8.92 | 7.26 | CC(C)NC(=O)O[C@@H]1CC[C@H](c2cc(NC(=O)[C@@H]3CCN(S(C)(=O)=O)C3)n[nH]2)C1 [Compound 25] | pIC50 [4]: 6.29; pIC50 [5]: 6.05
31 | 8.96 | 7.14 | Cn1nccc1C(=O)Nc1cc([C@@H]2C[C@H](OC(=O)NC34CC(C3)C4)CO2)[nH]n1 [Compound 97] | pIC50 [6]: 6.42
32 | 8.96 | 7.16 | C#C[C@H]1C[C@@H]1C(=O)Nc1cc([C@H]2CC[C@@H](OC(=O)NC3(C)COC3)C2)[nH]n1 [Compound 180] | pIC50 [3]: 6.68
33 | 9.05 | – | C#C[C@H]1C[C@@H]1C(=O)Nc1cc([C@H]2CC[C@@H](OC(=O)NC(C)C)C2)[nH]n1 [Compound 41] | pIC50 [4]: 6.51; pIC50 [6]: 6.24; pIC50 [5]: 6.60; pIC50 [7]: 6.71
34 | 9.05 | – | CC(C)NC(=O)O[C@@H]1CC[C@H](c2cc(NC(=O)C34CC(C#N)(C3)C4)n[nH]2)C1 [Compound 109] | pIC50 [7]: 6.63
35 | 9.10 | 7.46 | O=C(NC12CC(F)(C1)C2)O[C@@H]1CC[C@H](c2cc(NC(=O)[C@@H]3CCN(S(=O)(=O)C4CC4)C3)n[nH]2)C1 [Compound 181] | –
36 | 9.15 | – | C#C[C@H]1C[C@@H]1C(=O)Nc1cc([C@H]2CC[C@@H](OC(=O)NC34CC(F)(C3)C4)C2)[nH]n1 [Compound 194] | –
37 | 9.22 | – | Cc1c([C@@H]2C[C@H]2C(=O)Nc2cc([C@H]3CC[C@@H](OC(=O)NC4(C)CCC4)C3)[nH]n2)cnn1C [Compound 218] | –
38 | 9.30 | – | C#C[C@H]1C[C@@H]1C(=O)Nc1cc([C@@H]2CC[C@H](OC(=O)NC3(C)CCC3)C2)[nH]n1 [Compound 219] | –
